“And” between values parts separate entries of the source, which are not always exact repeats. Identical values can stand only once. Inconclusive results and toxic doses are left out.
Test system: P388 leukemia ip, CD2F1 mice, survival T/C
Experiment: NCI In Vivo Anticancer Drug Screen. Data for tumor model P388 Leukemia (intraperitoneal) in CD2F1 (CDF1) mice
Details: endpoint: median survival time, higher = longer survival
In short: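 Mice carrying the transplanted tumor received test compound or vehicle. Survival was recorded in each group, and the value is the treated-group measurement divided by that of the vehicle-treated control group.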

[1] = dose: 100.0 mg/kg/injection, schedule: Q04DX002 (ip), vehicle: Klucel (hydroxypropylcellulose) (HPC)
[2] = dose: 200.0 mg/kg/injection, schedule: Q04DX002 (ip), vehicle: Klucel (hydroxypropylcellulose) (HPC)
[3] = dose: 400.0 mg/kg/injection, schedule: Q04DX002 (ip), vehicle: Klucel (hydroxypropylcellulose) (HPC)
[4] = dose: 50.0 mg/kg/injection, schedule: Q01DX005 (ip), vehicle: saline with Tween-80
[5] = dose: 100.0 mg/kg/injection, schedule: Q01DX005 (ip), vehicle: saline with Tween-80
[6] = dose: 200.0 mg/kg/injection, schedule: Q01DX005 (ip), vehicle: saline with Tween-80
[7] = dose: 60.0 mg/kg/injection, schedule: Q01DX005 (ip), vehicle: saline with Tween-80
[8] = dose: 120.0 mg/kg/injection, schedule: Q01DX005 (ip), vehicle: saline with Tween-80
[9] = dose: 240.0 mg/kg/injection, schedule: Q01DX005 (ip), vehicle: saline with Tween-80

Q: Which results are given for `[Cu+2].[O-]/C(=N\N=C\c1ccccn1)c1ccc(Cl)cc1.[O-]/C(=N\N=C\c1ccccn1)c1ccc(Cl)cc1`?
A: T/C (dose: 50.0 mg/kg/injection, schedule: Q04DX002 (ip), vehicle: saline with Tween-80): 90 % of control; T/C (dose: 100.0 mg/kg/injection, schedule: Q04DX002 (ip), vehicle: saline with Tween-80): 93 % of control; T/C (dose: 200.0 mg/kg/injection, schedule: Q04DX002 (ip), vehicle: saline with Tween-80): 90 % of control

Q: `Cc1ccccc1-c1nc2c(N)nc(N)nc2nc1N` was tested. Which T/C (dose: 100.0 mg/kg/injection, schedule: Q04DX003 (ip), vehicle: saline with Tween-80) did it give?
A: 109 % of control

Q: And the T/C (dose: 200.0 mg/kg/injection, schedule: Q01DX009 (ip), vehicle: saline with Tween-80)?
A: 172 % of control

Q: What about the T/C (dose: 200.0 mg/kg/injection, schedule: Q04DX003 (ip), vehicle: saline with Tween-80) of the same compound?
A: 109 % of control

Q: What about the T/C (dose: 264.0 mg/kg/injection, schedule: Q04DX003 (ip), vehicle: saline with Tween-80) of the same compound?
A: 113 % of control

Q: What about the T/C (dose: 300.0 mg/kg/injection, schedule: Q01DX009 (ip), vehicle: saline with Tween-80) of the same compound?
A: 109 % of control

Q: And the T/C (dose: 400.0 mg/kg/injection, schedule: Q04DX003 (ip), vehicle: saline with Tween-80)?
A: 113 % of control

Q: For `O=C(O)CSC(CC(=O)O)C(F)(F)C(F)(F)C(F)(F)F` (centres undefined), which T/C (dose: 176.0 mg/kg/injection, schedule: Q04DX003 (ip), vehicle: saline) is on record?
A: 100 % of control

Q: And the T/C (dose: 264.0 mg/kg/injection, schedule: Q04DX003 (ip), vehicle: saline)?
A: 95 % of control

Q: With `Cc1cc(N)nc(=O)n1COCCOCc1ccccc1` as the compound, how does the T/C [1] read?
A: 103 % of control

Q: And the T/C [2]?
A: 106 % of control

Q: What about the T/C [3] of the same compound?
A: 98 % of control

Q: Which results are given for `CCS(=O)(=O)c1ncnc2nc[nH]c12`?
A: T/C (dose: 50.0 mg/kg/injection, schedule: Q01DX005 (ip), vehicle: Klucel (hydroxypropylcellulose) (HPC)): 100 % of control; T/C (dose: 100.0 mg/kg/injection, schedule: Q01DX005 (ip), vehicle: Klucel (hydroxypropylcellulose) (HPC)): 102 % of control; T/C (dose: 200.0 mg/kg/injection, schedule: Q01DX005 (ip), vehicle: Klucel (hydroxypropylcellulose) (HPC)): 100 % of control

Q: `CCOC(=O)N1CCc2cc(OC)c(OC)cc2/C1=C/c1cc(Br)sc1Br` was tested. Which T/C [1] did it give?
A: 102 % of control

Q: What about the T/C [2] of the same compound?
A: 103 % of control

Q: What about the T/C [3] of the same compound?
A: 105 % of control

Q: What does the source list for `Cc1c([N+](=O)[O-])c(=O)oc2c1ccc1occc(=O)c12`?
A: T/C [4]: 96 % of control; T/C [5]: 89 % of control; T/C [6]: 90 % of control

Q: Which T/C [7] does the source give for `CCCCNc1ccc(-c2c(N)nc(N)nc2CC)cc1[N+](=O)[O-]` here?
A: 111 % of control and 118 % of control

Q: And the T/C [8]?
A: 121 % of control

Q: And the T/C [9]?
A: 206 % of control

Q: And the T/C (dose: 480.0 mg/kg/injection, schedule: Q01DX005 (ip), vehicle: saline with Tween-80)?
A: 158 % of control

Q: With `Cc1ncc(C(N)=O)c2c1OC(C)(C)OC2` as the compound, how does the T/C [4] read?
A: 100 % of control

Q: And the T/C [5]?
A: 100 % of control

Q: And the T/C [6]?
A: 99 % of control

Q: Which results are given for `COC(=O)C1=C(C(=O)OC)C(C)(C)N=N1`?
A: T/C (dose: 5.3 mg/kg/injection, schedule: Q01DX009 (ip), vehicle: other): 111 % of control; T/C (dose: 8.0 mg/kg/injection, schedule: Q01DX009 (ip), vehicle: other): 117 % of control; T/C (dose: 12.0 mg/kg/injection, schedule: Q01DX009 (ip), vehicle: other): 114 % of control; T/C (dose: 18.0 mg/kg/injection, schedule: Q01DX009 (ip), vehicle: other): 112 % of control; T/C (dose: 25.0 mg/kg/injection, schedule: Q01DX009 (ip), vehicle: other): 99 % of control

Q: What does the source list for `CCN=C(c1ccc(NC(=O)c2ccc(C(=O)Nc3ccc(C(=NCC)N(CC)CC)cc3)cc2)cc1)N(CC)CC`?
A: T/C (dose: 0.39 mg/kg/injection, schedule: Q01DX005 (ip), vehicle: Klucel (hydroxypropylcellulose) (HPC)): 102 % of control; T/C (dose: 0.78 mg/kg/injection, schedule: Q01DX005 (ip), vehicle: Klucel (hydroxypropylcellulose) (HPC)): 100 % of control; T/C (dose: 1.56 mg/kg/injection, schedule: Q01DX005 (ip), vehicle: Klucel (hydroxypropylcellulose) (HPC)): 101 % of control

Q: What does the source list for `CCOC(=O)c1sc2nc(CN3CCOCC3)[nH]c(=O)c2c1C`?
A: T/C [4]: 94 % of control; T/C [5]: 98 % of control; T/C [6]: 98 % of control

Q: What does the source list for `C/C(CCCC(C)(C)C(=O)O)=N\NC(N)=O`?
A: T/C [7]: 100 % of control; T/C [8]: 94 % of control; T/C [9]: 97 % of control
